Active and inactive are the calls of the source. The rule behind the calls is not given here.
System: CCRIS mutagenicity, Ames/micronucleus/aberration tests
Assay: CCRIS mutagenicity studies
[1] = Test System: AMES SALMONELLA TYPHIMURIUM, Strain/Indicator: TA98, Metabolic Activation: NONE, Method: STANDARD PLATE
[2] = Test System: AMES SALMONELLA TYPHIMURIUM, Strain/Indicator: TA98, Metabolic Activation: RAT, LIVER, S-9, AROCLOR 1254, Method: STANDARD PLATE
[3] = Test System: AMES SALMONELLA TYPHIMURIUM, Strain/Indicator: TA100, Metabolic Activation: NONE, Method: STANDARD PLATE
[4] = Test System: AMES SALMONELLA TYPHIMURIUM, Strain/Indicator: TA100, Metabolic Activation: RAT, LIVER, S-9, AROCLOR 1254, Method: STANDARD PLATE
[5] = Test System: AMES SALMONELLA TYPHIMURIUM, Strain/Indicator: TA1535, Metabolic Activation: NONE, Method: STANDARD PLATE
[6] = Test System: AMES SALMONELLA TYPHIMURIUM, Strain/Indicator: TA1535, Metabolic Activation: RAT, LIVER, S-9, AROCLOR 1254, Method: STANDARD PLATE
[7] = Test System: AMES SALMONELLA TYPHIMURIUM, Strain/Indicator: TA1537, Metabolic Activation: NONE, Method: STANDARD PLATE
[8] = Test System: AMES SALMONELLA TYPHIMURIUM, Strain/Indicator: TA1537, Metabolic Activation: RAT, LIVER, S-9, AROCLOR 1254, Method: STANDARD PLATE
[9] = Test System: AMES SALMONELLA TYPHIMURIUM, Strain/Indicator: TA1538, Metabolic Activation: NONE, Method: STANDARD PLATE
[10] = Test System: AMES SALMONELLA TYPHIMURIUM, Strain/Indicator: TA1538, Metabolic Activation: RAT, LIVER, S-9, AROCLOR 1254, Method: STANDARD PLATE
[11] = Test System: MOUSE LYMPHOMA, Strain/Indicator: L5178Y (TK+/TK-), Metabolic Activation: NONE, Method: SUSPENSION/PLATE
[12] = Test System: MOUSE LYMPHOMA, Strain/Indicator: L5178Y (TK+/TK-), Metabolic Activation: RAT, LIVER, S-9, AROCLOR 1254, Method: SUSPENSION/PLATE

For `CCCOC(=O)c1cc(O)c(O)c(O)c1`, the mutagenic call (End Point: IN VITRO CHROMOSOMAL ABERRATIONS, Test System: CHO CELLS, Metabolic Activation: RAT, LIVER, S-9, AROCLOR 1254) was “inactive; negative”, the mutagenic call (Test System: AMES SALMONELLA TYPHIMURIUM, Strain/Indicator: TA97, Metabolic Activation: NONE, Method: PREINCUBATION) was “inactive; negative” and the mutagenic call (Test System: AMES SALMONELLA TYPHIMURIUM, Strain/Indicator: TA97, Metabolic Activation: S-9, Method: PREINCUBATION) was “inactive; negative”. For the same molecule, the mutagenic call (Test System: AMES SALMONELLA TYPHIMURIUM, Strain/Indicator: TA98, Metabolic Activation: NONE, Method: PREINCUBATION) was “inactive; negative”, the mutagenic call [1] was “inactive; negative” and the mutagenic call (Test System: AMES SALMONELLA TYPHIMURIUM, Strain/Indicator: TA98, Metabolic Activation: RAT LIVER S-9, Method: PREINCUBATION) was “inactive; negative”. For the same molecule, the mutagenic call [2] was “inactive; negative”, the mutagenic call (Test System: AMES SALMONELLA TYPHIMURIUM, Strain/Indicator: TA100, Metabolic Activation: NONE, Method: PREINCUBATION) was “inactive; negative” and the mutagenic call [3] was “inactive; negative”. The mutagenic call (Test System: AMES SALMONELLA TYPHIMURIUM, Strain/Indicator: TA100, Metabolic Activation: RAT LIVER S-9, Method: PREINCUBATION) was “inactive; negative”, the mutagenic call [4] was “inactive; negative” and the mutagenic call (Test System: AMES SALMONELLA TYPHIMURIUM, Strain/Indicator: TA102, Metabolic Activation: NONE, Method: PREINCUBATION) was “inactive; negative”. The mutagenic call (Test System: AMES SALMONELLA TYPHIMURIUM, Strain/Indicator: TA102, Metabolic Activation: S-9, Method: PREINCUBATION) was “active; positive”, the mutagenic call [5] was “inactive; negative” and the mutagenic call [6] was “inactive; negative”. For the same molecule, the mutagenic call [7] was “inactive; negative”, the mutagenic call [8] was “inactive; negative” and the mutagenic call [9] was “inactive; negative”. The mutagenic call [10] was “inactive; negative”, the mutagenic call (Test System: Ames Salmonella typhimurium, Strain/Indicator: TA102, Metabolic Activation: None, Method: Preincubation) was “inactive; negative” and the mutagenic call (Test System: Ames Salmonella typhimurium, Strain/Indicator: TA102, Metabolic Activation: Rat, Liver, S-9, Aroclor 1254 in 0.154 M KCl, Method: Preincubation) was “inactive; negative”. For the same molecule, the mutagenic call (Test System: E. COLI, Strain/Indicator: WP2, Metabolic Activation: NONE, Method: STANDARD PLATE) was “inactive; negative” and the mutagenic call (Test System: E. COLI, Strain/Indicator: WP2, Metabolic Activation: RAT, LIVER, S-9, AROCLOR 1254, Method: STANDARD PLATE) was “inactive; negative”.

With `CCOCCc1c(-c2ccccc2)nc(N)n2ncnc12` the mutagenic call [1] was “inactive; negative”, the mutagenic call [2] was “inactive; negative” and the mutagenic call [3] was “inactive; negative”. The mutagenic call [4] was “inactive; negative”, the mutagenic call [5] was “inactive; negative” and the mutagenic call [6] was “inactive; negative”. The mutagenic call [7] was “inactive; negative”, the mutagenic call [8] was “inactive; negative” and the mutagenic call [9] was “inactive; negative”. For the same molecule, the mutagenic call [10] was “inactive; negative”, the mutagenic call (Test System: CHINESE HAMSTER OVARY, Strain/Indicator: CHO-K1-BH4 (HGPRT)/6-THIOGUANINE, Metabolic Activation: NONE) was “inactive; negative” and the mutagenic call (Test System: CHINESE HAMSTER OVARY, Strain/Indicator: CHO-K1-BH4 (HGPRT)/6-THIOGUANINE, Metabolic Activation: RAT, LIVER, S-9, AROCLOR 1254) was “inactive; negative”. For the same molecule, the mutagenic call [11] was “inactive; negative”, the mutagenic call [12] was “inactive; negative” and the mutagenic call (Test System: UDS RAT PRIMARY HEPATOCYTES, Strain/Indicator: THY INCORP, Metabolic Activation: NONE, Method: AUTORADIOGRAPHY) was “inactive; negative”.

With `CC1=Nc2ccccc2C1(C)C` the mutagenic call (Test System: AMES SALMONELLA TYPHIMURIUM, Strain/Indicator: TA98, Metabolic Activation: HAMSTER, LIVER, S-9, AROCLOR 1254, Method: STANDARD PLATE) was “inactive; negative”, the mutagenic call [1] was “inactive; negative” and the mutagenic call [2] was “inactive; negative”. The mutagenic call (Test System: AMES SALMONELLA TYPHIMURIUM, Strain/Indicator: TA100, Metabolic Activation: HAMSTER, LIVER, S-9, AROCLOR 1254, Method: STANDARD PLATE) was “inactive; negative”, the mutagenic call [3] was “inactive; negative” and the mutagenic call [4] was “inactive; negative”. For the same molecule, the mutagenic call (Test System: AMES SALMONELLA TYPHIMURIUM, Strain/Indicator: TA1535, Metabolic Activation: HAMSTER, LIVER, S-9, AROCLOR 1254, Method: STANDARD PLATE) was “inactive; negative”, the mutagenic call [5] was “inactive; negative” and the mutagenic call [6] was “inactive; negative”. For the same molecule, the mutagenic call (Test System: AMES SALMONELLA TYPHIMURIUM, Strain/Indicator: TA1537, Metabolic Activation: HAMSTER, LIVER, S-9, AROCLOR 1254, Method: STANDARD PLATE) was “inactive; negative”, the mutagenic call [7] was “inactive; negative” and the mutagenic call [8] was “inactive; negative”. For the same molecule, the mutagenic call (Test System: AMES SALMONELLA TYPHIMURIUM, Strain/Indicator: TA1538, Metabolic Activation: HAMSTER, LIVER, S-9, AROCLOR 1254, Method: STANDARD PLATE) was “inactive; negative”, the mutagenic call [9] was “inactive; negative” and the mutagenic call [10] was “inactive; negative”. The mutagenic call [11] was “inactive; positive. reevaluation of results: negative” and the mutagenic call [12] was “active; positive. reevaluation of results: inconclusive”.

For `C=CCO`, the mutagenic call (End Point: In vitro chromosomal aberrations, Test System: Chinese hamster lung (CHL/IU) cells, Metabolic Activation: Rat, Liver, S9, Phenobarbital and 5,6-benzoflavone) was “active; positive (structural changes and ploidy). toxicity at 0.008 mg/ml”, the mutagenic call (Test System: CHINESE HAMSTER V-79, Strain/Indicator: V-79/6-THIOGUANINE, Metabolic Activation: NONE) was “active; positive” and the mutagenic call [11] was “active; positive. reevaluation of results: positive”. For the same molecule, the mutagenic call (Test System: Mouse lymphoma, Strain/Indicator: L5178Y (tk+/tk-), Metabolic Activation: Rat, Liver, S-9, Aroclor 1254, Method: Suspension/plate) was “inactive; negative”.

`CC(C)(O)[C@H]1Cc2cc3ccc(=O)oc3cc2O1` was tested, and the mutagenic call (Test System: AMES SALMONELLA TYPHIMURIUM, Strain/Indicator: TA92, Metabolic Activation: NONE, Method: SPOT TEST) was “active; positive”, the mutagenic call (Test System: AMES SALMONELLA TYPHIMURIUM, Strain/Indicator: TA92, Metabolic Activation: RAT, LIVER, S-9, AROCLOR 1254, Method: SPOT TEST) was “active; positive” and the mutagenic call (Test System: AMES SALMONELLA TYPHIMURIUM, Strain/Indicator: TA94, Metabolic Activation: NONE, Method: SPOT TEST) was “inactive; negative”. The mutagenic call (Test System: AMES SALMONELLA TYPHIMURIUM, Strain/Indicator: TA94, Metabolic Activation: RAT, LIVER, S-9, AROCLOR 1254, Method: SPOT TEST) was “inactive; negative”, the mutagenic call (Test System: AMES SALMONELLA TYPHIMURIUM, Strain/Indicator: TA97, Metabolic Activation: NONE, Method: SPOT TEST) was “active; positive” and the mutagenic call (Test System: AMES SALMONELLA TYPHIMURIUM, Strain/Indicator: TA97, Metabolic Activation: RAT, LIVER, S-9, AROCLOR 1254, Method: SPOT TEST) was “active; positive”. The mutagenic call (Test System: AMES SALMONELLA TYPHIMURIUM, Strain/Indicator: TA98, Metabolic Activation: NONE, Method: SPOT TEST) was “active; positive”, the mutagenic call (Test System: AMES SALMONELLA TYPHIMURIUM, Strain/Indicator: TA98, Metabolic Activation: RAT, LIVER, S-9, AROCLOR 1254, Method: SPOT TEST) was “active; positive” and the mutagenic call (Test System: AMES SALMONELLA TYPHIMURIUM, Strain/Indicator: TA100, Metabolic Activation: NONE, Method: SPOT TEST) was “active; positive”. For the same molecule, the mutagenic call [3] was “active; positive”, the mutagenic call (Test System: AMES SALMONELLA TYPHIMURIUM, Strain/Indicator: TA100, Metabolic Activation: RAT, LIVER, S-9, AROCLOR 1254, Method: SPOT TEST) was “active; positive” and the mutagenic call (Test System: AMES SALMONELLA TYPHIMURIUM, Strain/Indicator: TA102, Metabolic Activation: NONE, Method: SPOT TEST) was “inactive; negative”. The mutagenic call (Test System: AMES SALMONELLA TYPHIMURIUM, Strain/Indicator: TA102, Metabolic Activation: RAT, LIVER, S-9, AROCLOR 1254, Method: SPOT TEST) was “inactive; negative”.
